Experimental data from PMC5555576, “Selective small-chemical inhibitors of protein arginine methyltransferase 5 with anti-lung cancer activity” (PLoS ONE, 2017).

How the values were obtained:
[1] = system: arginine methylation in histone H2A, histone H4 and B-Raf in A549 cells; experiment: Western blot of symmetrical arginine dimethylation of PRMT5 substrates in cells; type: cell-based; conditions: 20 μM, SYM10 antibody
Method: Histones were purified as reported previously. Briefly, cells (1–5 x 10^6) or lung tumors (10–100 mg) were lysated using a glass dounce in 1 ml of 1x Passive Lysis Buffer (Promega) and nuclear pellets were collected by centrifugation at 3,000 rpm for 5 min at 4 °C. The supernatant was discard and the pellets were washed with 1 ml of 1x Passive Lysis Buffer. Nuclear pellets were resuspended in 0.4 ml of the buffer (10 mM Trs-HCl, pH7.9, 0.2 mM EDTA, 1 mM DTT, 20% glycerol, 0.42 M KCl) and incubate for 30 min on ice, and centrifuged at 12,000 rpm for 10 min at 4 °C. The supernatant (histones extract) was transferred to a new tube and histones were precipitated by 20% trichloroacetic acid.
Protein extracts or histones (20 μg) were subjected to 10% or 15% sodium dodecyl sulfate-polyacrylamide gel electrophoresis, respectively then transferred to Immobilon-P membranes (Millipore). The blots were then probed for 2 hours with the primary antibody at dilutions of 1:500 (anti-symmetrical dimethylated arginine, SYM10, EMD Millipore), 1:1,000 (anti-B Raf, ab65050, Abcam) or 1:1,000 (anti-PRMT5, Abcam). The blots were then incubated with a horseradish peroxide-conjugated secondary antibody (1:5,000; Fischer Scientific) for 1.5 h. Immunoreactive proteins were detected using an enhanced chemiluminescence detection system (GE Healthcare) per the manufacturer’s instructions. Protein concentrations were determined using the Bradford protein assay reagent (Bio-Rad).
A, The cellular permeability of identified compounds. Lung cancer A549 cells were cultured in the presence of various concentrations of compounds for 2h and the compound concentrations in the cell were determined by HPLC chromatography with a C18 column. B, The cellular stability of identified compounds. […] The compound concentrations in the cell were determined by HPLC chromatography with a C18 column. […] Histones were purified and analyzed by SDS-PAGE stained with Commassie blue (lanes 1–4, bottom) or by Western blot with anti-symmetric dimethyl arginine antibody (SYM10) (lanes 1–4, top). […]

[2] = system: A549 cells; experiment: Cell growth by cell counting, A549; type: cell-based; conditions: for A549 cell growth inhibition: various concentrations and time points
Method: Lung cancer A549 (ATCC) and PC14 (ATCC) cells were cultured in minimum essential medium (Cellgro) with 10% (v/v) fetal bovine serum (FBS) (HyClone), 2% vitamins, 1% L-glutamine, 1% non-essential amino acids and 1% sodium pyruvate. For the treatment with identified compounds, cells (2, 000 cells/well) were seeded in 24-well plates in the medium containing 2% FBS. The fresh medium containing identified compounds was added 24 hours later. Cells were cultured for various times in a CO2 incubator and the cell numbers were counted. Each experiment was performed in triplicate.
A, Lung cancer A549 cells were cultured in the presence of various concentrations (μM) of identified compounds and growth inhibition was determined by cell counting at various time points. B, Lung cancer PC14 cells were cultured in the presence of DMSO or various concentrations of identified compounds and growth inhibition was determined by cell counting 2 days post the compound treatment. C, The serum concentrations of compound C9 after oral administration. Mice were sacrificed and blood samples were collected immediately before (0 h) and at 2, 4, 6 and 8h after compound administration.
Fig 8 The C9 analogue has improved PRMT5-inhibitory efficacy and oral drug availability. A, The chemical structure of the C9 analogue. B, Compound C9a inhibited methylation of SmD3 by PRMT5. The recombinant SmD3 (2 μg) was used as the substrate in the absence (lane 5) or presence of 1, 10 or 100 μM compounds as indicated. […] C, C9a has improved efficacy to inhibit lung cancer growth. A549 cells were cultured in the presence of various concentrations of C9 or C9a and growth inhibition was determined by cell counting 2 days post the compound treatment. […] Male BALB/c mice were randomized and administrated C9a by oral gavage and compound concentrations in blood samples were determined.

[3] = Plasma concentrations after administration, LC-MS/MS; type: in vivo, BALB/c mice; conditions: mouse
Method: Male BALB/c mice (8–10 weeks old) were purchased from Charles River Laboratory and were randomized for compound administration. Chemical compounds were dissolved in 0.1 ml of 0.5% (w/v) carboxymethycellulose (Sigma-Aldrich) plus 0.5% Tween 80 (Fisher Scientific) and administrated by oral gavage at the dosage of 50 mg/kg or 100 mg/kg. Mice were sacrificed and blood samples were collected immediately before (n = 5) and at 2 (n = 5), 4 (n = 5), 6 (n = 5) or 8 (n = 8) h after compound administration. Plasma samples were sent to the Pharmaceutical Development Center at MD Anderson Cancer Center for LC-MS/MS assay to determine compound concentrations.
Supplementary file pone.0181601.s001.tif: S1 Fig The serum concentrations of compound C9. The chemical compound was dissolved in 5% DMSO-0.5% Tween 80. BALB/c mice (8–10 weeks old) were randomized and administrated the vehicle (0.1 ml) or compound C9 dissolved in the vehicle (0.1 ml) by intraperitoneal (I.P.) injection at the dosage of 25, 50 or 100 mg/kg. Mice were sacrificed and blood samples were collected immediately before (0 h, n = 5) and at 2 (n = 5), 4 (n = 5), 6 (n = 5) and 8 (n = 5) h after compound administration. Plasma samples were sent to the Pharmaceutical Development Center at MD Anderson Cancer Center for LC-MS/MS assay to determine compound concentrations. (TIF) Click here for additional data file.

[4] = system: CDK2 (Rb pT821) in A549 cells; experiment: Western blot of Rb phosphorylation at T821; type: cell-based; conditions: 20 μM, 4 h
Text: (§1) The retinoblastoma protein (Rb) is phosphorylated by CKDs in cells.
(§2) (TIF) Click here for additional data file.

[5] = system: CDK4/6 (Rb pS811) in A549 cells; experiment: Western blot of Rb phosphorylation at S811; type: cell-based; conditions: 20 μM, 4 h
Text: as §1, §2

SMILES | arginine methylation in histone H2A, histone H4 and B-Raf [1] | A549 cell growth inhibition [2] | inhibition of growth of lung cancer cells compared to C9 ([2]; A549 cells, 2 days) | oral drug availability compared to C9 ([3]; oral gavage) | Rb phosphorylation at the site T821 by CDK2 [4] | Rb phosphorylation at the site S811 by CDK4/6 [5] | IC50 ([2]; Homo sapiens, A549 cells) | plasma concentration reached ([3]; intraperitoneal injection, 100 mg/kg) | maximal plasma concentration ([3]; oral gavage, 100 mg/kg)
CCn1c(=O)[nH]c2cc(C(=O)Nc3ccc(OC)cc3)ccc2c1=O [Compound C5] | significantly inhibited | inhibited A549 cell growth in a dosage- and time-dependent manner at sub μM concentrations |  |  |  |  |  |  | 
Nc1cccc(Nc2ncnc3c2cnn3Cc2ccccc2)c1 [Compound C9a] |  |  | higher efficacy | improved oral drug availability | failed to inhibit | failed to inhibit |  |  | 
COc1ccc(Nc2ncnc3c2cnn3Cc2ccc(C)cc2)cc1 [Compound C9] | significantly inhibited | inhibited A549 cell growth in a dosage- and time-dependent manner at sub μM concentrations |  |  | failed to inhibit | failed to inhibit | ~1 µM | 38 µM | 5.8 µM
Cn1cc(C(c2ccc(O)c(O)c2O)c2cn(C)c3ccccc23)c2ccccc21 [Compound C11] | significantly inhibited | inhibited A549 cell growth in a dosage- and time-dependent manner at sub μM concentrations |  |  |  |  |  |  | 
